Laboratory results reported in PubChem BioAssay (NCI).
Values joined by “and” are separate entries in the source; they are usually repeats but may differ in a detail not shown here. Equal values may be shown once.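 The compound was tested at five concentrations on cells cultured in 96-well plates, with a 48-hour exposure period. The concentration for 50% growth inhibition is given as GI50. TGI marks complete inhibition of growth.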

Columns and labels:
Test in all cases: growth of human tumour cells (NCI), 48 h
IGROV1 ovarian = test system: IGROV1 ovarian
K-562 leukemia = test system: K-562 leukemia
KM12 colon = test system: KM12 colon
NCI-H522 lung = test system: NCI-H522 lung
OVCAR-5 ovarian = test system: OVCAR-5 ovarian
SF-539 CNS = test system: SF-539 CNS
SK-MEL-2 melanoma = test system: SK-MEL-2 melanoma
UO-31 renal = test system: UO-31 renal
786-0 renal = test system: 786-0 renal
HS 578T breast = test system: HS 578T breast

| Structure (SMILES) | TGI (IGROV1 ovarian) [µM] | TGI (K-562 leukemia) | TGI (KM12 colon) | TGI (NCI-H522 lung) | TGI (OVCAR-5 ovarian) [µM] | TGI (SF-539 CNS) [µM] | TGI (SK-MEL-2 melanoma) [µM] | TGI (UO-31 renal) [µM] | TGI (786-0 renal) [µM] | TGI (HS 578T breast) | GI50 (HS 578T breast) [µM] | GI50 (IGROV1 ovarian) [µM] | GI50 (K-562 leukemia) [µM] | GI50 (KM12 colon) [µM] | GI50 (NCI-H522 lung) [µM] | GI50 (OVCAR-5 ovarian) [µM] | GI50 (SF-539 CNS) [µM] | GI50 (SK-MEL-2 melanoma) [µM] | GI50 (UO-31 renal) [µM] |
| --- | --- | --- | --- | --- | --- | --- | --- | --- | --- | --- | --- | --- | --- | --- | --- | --- | --- | --- | --- |
| Cc1c2cc[n+](Cc3ccc(I)cc3)cc2c(C)c2c1[nH]c1ccccc12 | > 25 | 10.7 µM | 1.83 µM | 5.59 µM | 11.3 | > 15.8 | 1.64 | 15.8 | – | – | – | – | – | – | – | – | – | – | – |
| CN(CCN)[C@H](CSSC[C@@H](c1ccccc1O)N(C)CCN)c1ccccc1O | – | 24.3 µM | 28.2 µM | 33 µM | 28.6 | 31.9 | 38.9 | 23.9 | 32.6 | 49.9 µM | – | – | – | – | – | – | – | – | – |
| OCCc1ccsc1-c1sc(-c2cc(CCO)c(-c3sc(-c4cc(CCO)c(-c5sccc5CCO)s4)cc3CCO)s2)cc1CCO | 2.6 | – | 1.9 µM | 2.36 µM | 2.85 | 2.95 | 3.35 | 2.7 | 2.14 | 7.31 µM | – | – | – | – | – | – | – | – | – |
| CCOC(=O)[C@@]12C[C@](/C=C/OC)(O[Si](C)(C)C)[C@@]13c1cc(OC)c(OC)cc1CCN3C(=O)C2=O | > 100 | > 100 µM | > 100 µM | – | > 100 | > 100 | > 100 | > 100 | > 100 | > 100 µM | – | – | – | – | – | – | – | – | – |
| CN(C(=O)Cc1ccccc1)n1cn[n+](CC(=O)OC(C)(C)C)c1 | > 10 | > 10 µM | > 10 µM | > 10 µM | > 10 | > 10 | – | > 10 | > 10 | > 10 µM | – | – | – | – | – | – | – | – | – |
| Cc1ccc(C(=O)N/N=C(\N=Nc2ccc([N+](=O)[O-])cc2)c2ccc(N(CCC#N)CCC#N)cc2C)cc1 | > 100 | > 100 µM | > 100 µM | – | > 100 | > 100 | > 100 | > 100 | > 100 | > 100 µM | – | – | – | – | – | – | – | – | – |
| COC(=O)/C=C(C)/C=C\COC1CCCCO1 (configuration not stated) | > 100 | > 100 µM | > 100 µM | > 100 µM | > 100 | – | > 100 | > 100 | > 100 | > 100 µM | – | – | – | – | – | – | – | – | – |
| Nc1nc(Cl)c(CO)c(NCC2(CO)CCC2)n1 | > 100 | > 100 µM | > 100 µM | > 100 µM | > 100 | > 100 | – | > 100 | > 100 | > 100 µM | – | – | – | – | – | – | – | – | – |
| O=C(Nc1cccc(-n2ccc3c(NC(=O)c4ccccc4)ncnc32)c1)Nc1ccc(Cl)c(C(F)(F)F)c1 | 17.1 | 50 µM | 8.16 µM | 6.31 µM | 9.69 | 9.91 | 3.64 | 10.9 | – | 22.6 µM | 2.55 | 2.92 | 1.61 | 1.95 | 1.36 | 2.38 | 1.98 | 1.18 | 3.44 |
| C[C@]12CC[C@H]3[C@@H](CC=C4C[C@@H](O)CC[C@@]43C)[C@@H]1C/C(=C\c1cccnc1)[C@@H]2O | > 100 | – | > 100 µM | 42.5 µM | > 100 | 81.6 | > 100 | > 100 | 96 | 33.3 µM | – | – | – | – | – | – | – | – | – |
| Cc1ccc(/C=c2\cc3oc(=O)c4cccc(c4-3)c2=O)cc1 | > 100 | > 100 µM | – | > 100 µM | > 100 | > 100 | > 100 | > 100 | > 100 | – | – | – | – | – | – | – | – | – | – |
| CC(=O)N[C@@H](Cc1ccc(O)cn1)C(=O)NCc1ccc(Cl)cc1 | > 100 | > 100 µM | > 100 µM | > 100 µM | > 100 | > 100 | > 100 | > 100 | > 100 | – | – | – | – | – | – | – | – | – | – |
| CCCC(=O)Nc1cc(C(=O)N2C[C@H]3C[C@@]34C2=CC(=O)c2[nH]cc(C)c24)n(COC)c1 | – | 50 µM and 18.8 µM | 2.29 µM and 14.7 µM | 0.261 µM and 0.117 µM | 50 | – | – | 3.64 | 5.82 | 2.88 µM and 0.989 µM | 0.267 | – | 0.0925 | 0.282 | 0.0115 | – | 0.118 | 0.13 | 0.561 |
| Oc1c(Br)cc2c(c1Br)-c1c(c(O)c3c4c1=NCCC=4C=N3)NCC2 | 27.4 | 40.9 µM | 27.2 µM | 5.52 µM | 40.2 | 26.5 | 26.4 | 39.8 | – | – | – | – | – | – | – | – | – | – | – |
| CSc1cc(Cl)c(C)cc1S(=O)(=O)NC(=O)NNc1ccc(C)cc1 | > 100 | > 100 µM | > 100 µM | > 100 µM | > 100 | > 100 | > 100 | – | > 100 | > 100 µM | – | – | – | – | – | – | – | – | – |
| N#C[S-].[La+3].c1ccc(-c2ccccn2)nc1.c1ccc(-c2ccccn2)nc1.c1ccc(-c2ccccn2)nc1 | 60.5 | – | > 100 µM | – | 55.1 | > 100 | 53.6 | 55.9 | – | – | – | 25.6 | – | 51 | – | 15 | 33.2 | 21.5 | 10.8 |
| CCOC(=O)c1ccc(N(CCOS(C)(=O)=O)CCOS(C)(=O)=O)cc1 | > 100 | > 100 µM | > 100 µM | 41.1 µM | > 100 | 62.1 | > 100 | 39.3 | – | > 100 µM | – | – | – | – | – | – | – | – | – |
| O=C(/C=C/c1ccc(OCc2ccccc2)cc1)NCc1ccc(C(=O)NCCc2ccccc2)cc1 | > 100 | – | > 100 µM | > 100 µM | > 100 | > 100 | > 100 | > 100 | > 100 | > 100 µM | – | – | – | – | – | – | – | – | – |
| CCOC(=O)C(O)(CC1=NC(C(=O)OC)(C(=O)OC)C(c2cccc(C=O)c2)O1)C(=O)OCC (configuration not stated) | > 100 | > 100 µM | > 100 µM | – | > 100 | – | > 100 | > 100 | > 100 | – | – | – | – | – | – | – | – | – | – |
| O=c1cc(-c2cccc(OC(F)(F)F)c2)[nH]c2ccc(N3CCCC3)cc12 | – | – | 0.00249 µM | – | > 100 | 0.000621 | 0.000848 | > 100 | – | 86.2 µM | – | – | – | – | – | – | – | – | – |
| O=C(C[N+]12CN3CN(CN(C3)C1)C2)c1ccc(-c2ccccc2)cc1 | 66.5 | 33.7 µM | 90.3 µM | 38.2 µM | 37.6 | – | 35.2 | 61.8 | 45.9 | > 100 µM | – | – | – | – | – | – | – | – | – |
| O=C(O)CN1C(=O)c2ccc(NC(=O)C(=O)O)cc2S1(=O)=O | > 100 | > 100 µM | > 100 µM | > 100 µM | > 100 | – | > 100 | > 100 | > 100 | > 100 µM | – | – | – | – | – | – | – | – | – |
